Consider 20 compounds from US20200339548A1, “PYRIMIDINE DERIVATIVES AND THEIR USE FOR THE TREATMENT OF CANCER” (Adorx Therapeutics Limited, priority 2017, published 2020).

Each structure is given as a SMILES string. Where a name gives a salt, the structure may show the parent alone. Read-outs that look alike come from different tables or passages of the source.

Assay [1] addresses T1, Adenosine A1 receptor (Homo sapiens, UniProt P30542).
T1 construct: expressed in transfected cells; host or cells: CHO cell membranes
T1 sequence (P30542 1-326): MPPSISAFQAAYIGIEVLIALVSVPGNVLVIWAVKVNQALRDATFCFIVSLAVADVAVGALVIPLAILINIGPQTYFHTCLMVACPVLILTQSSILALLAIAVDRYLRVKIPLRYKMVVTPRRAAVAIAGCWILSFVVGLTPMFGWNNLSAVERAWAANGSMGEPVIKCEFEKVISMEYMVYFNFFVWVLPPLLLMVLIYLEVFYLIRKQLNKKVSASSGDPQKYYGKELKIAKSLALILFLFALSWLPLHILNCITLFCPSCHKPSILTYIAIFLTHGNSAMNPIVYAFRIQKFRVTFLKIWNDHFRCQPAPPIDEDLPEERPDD
Put plainly: Adenosine receptor TR-FRET binding assay, A1. Conditions: Table 9, further testing; displacement of 100 nM CA200645, CHO cell membranes. In a few lines: (§1)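 Competition TR-FRET binding in CHO cell membranes expressing terbium-labelled human receptors, displacing fluorescent XAC (CA200645; 30 nM for A2b, 100 nM for A1, A2a, A3); 2 h at room temperature with saponin buffer, 1% DMSO. 665/620 nm ratio; non-specific with 10 μM XAC; Ki by Cheng–Prusoff from IC50.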
(In general: Time-resolved FRET reads energy transfer from a long-lived donor to a nearby acceptor.)

For assay [2], the target named is T2, Adenosine A2b receptor (Homo sapiens, UniProt P29275).
T2 construct: expressed in transfected cells; host or cells: CHO cell membranes
T2 sequence (P29275 1-332): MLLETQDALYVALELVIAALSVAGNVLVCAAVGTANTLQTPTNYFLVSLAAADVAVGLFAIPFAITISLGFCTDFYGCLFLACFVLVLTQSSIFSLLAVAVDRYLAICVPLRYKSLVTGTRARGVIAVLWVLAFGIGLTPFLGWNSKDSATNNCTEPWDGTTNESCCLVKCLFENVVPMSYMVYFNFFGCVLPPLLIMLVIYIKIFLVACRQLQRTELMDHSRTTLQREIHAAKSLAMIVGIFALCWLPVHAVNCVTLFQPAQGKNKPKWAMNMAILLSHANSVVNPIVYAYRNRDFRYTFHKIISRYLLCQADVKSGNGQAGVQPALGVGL
Put plainly: Adenosine receptor TR-FRET binding assay, A2b. As to conditions: Table 9, further testing; displacement of 30 nM CA200645, CHO cell membranes. In a few lines: as §1

The target of assay [3] is T3, Adenosine A3 receptor (Homo sapiens, UniProt P0DMS8).
T3 construct: expressed in transfected cells; host or cells: CHO cell membranes
T3 sequence (P0DMS8 1-318): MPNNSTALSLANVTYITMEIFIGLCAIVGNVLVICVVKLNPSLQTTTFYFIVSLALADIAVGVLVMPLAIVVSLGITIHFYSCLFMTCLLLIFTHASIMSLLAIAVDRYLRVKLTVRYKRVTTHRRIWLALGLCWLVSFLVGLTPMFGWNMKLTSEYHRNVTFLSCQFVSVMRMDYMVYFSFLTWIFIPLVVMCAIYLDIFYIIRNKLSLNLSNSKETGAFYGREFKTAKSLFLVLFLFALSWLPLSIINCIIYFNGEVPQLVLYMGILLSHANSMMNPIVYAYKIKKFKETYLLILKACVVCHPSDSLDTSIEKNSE
Put plainly: Adenosine receptor TR-FRET binding assay, A3. In outline:
as §1

The target of assay [4] is T4, Adenosine A2a receptor (Homo sapiens, UniProt P29274).
T4 construct: expressed in transfected cells; host or cells: CHO cell membranes
Put plainly: Adenosine receptor TR-FRET binding assay, A2a. Conditions: displacement of 100 nM CA200645, CHO cell membranes. In a few lines: as §1

Setting [5] is: Table 9, further testing, displacement of 100 nM CA200645, CHO cell membranes, read-out: A3 Ki.

Usually Ki stands for the equilibrium dissociation constant of an inhibitor or competing ligand from its target.

T4 sequence (P29274 whole entry): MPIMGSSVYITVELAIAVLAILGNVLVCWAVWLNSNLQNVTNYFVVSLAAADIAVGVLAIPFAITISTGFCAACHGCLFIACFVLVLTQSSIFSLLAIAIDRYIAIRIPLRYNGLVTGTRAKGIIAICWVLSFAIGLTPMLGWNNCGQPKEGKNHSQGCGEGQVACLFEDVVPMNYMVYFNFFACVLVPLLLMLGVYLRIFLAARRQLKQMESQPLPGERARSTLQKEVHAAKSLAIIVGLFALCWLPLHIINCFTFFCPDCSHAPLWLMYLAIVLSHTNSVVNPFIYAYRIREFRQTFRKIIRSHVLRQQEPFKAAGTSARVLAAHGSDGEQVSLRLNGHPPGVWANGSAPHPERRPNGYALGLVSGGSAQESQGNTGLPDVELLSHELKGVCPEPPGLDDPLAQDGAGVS

In the case of `Cc1ccc(-c2ncc(C(=O)NCc3ncccc3C)c(N)n2)o1` [Example 3.1, 4-Amino-2-(5-methyl-2-furyl)-N-[(3-methyl-2-pyridyl)methyl]pyrimidine-5-carboxamide], the Ki in assay [1] turned out to be 995 nM; in assay [2] it was 5540 nM; in assay [3] (setting [5]), 818 nM; in assay [4] (Table 9, further testing), 424 nM.

For `Cc1cccnc1CNC(=O)c1c(N)nc(-c2ccco2)nc1OCCCO` [Example 20.8, 4-Amino-2-(2-furyl)-6-(3-hydroxypropoxy)-N-[(3-methyl-2-pyridyl)methyl]pyrimidine-5-carboxamide], the Ki in assay [1] amounted to 7.5 nM; in assay [2] it was 165 nM; in assay [3] (setting [5]), 24 nM; in assay [4] (Table 9, further testing) it was 0.199 nM.

On to `COc1cc(CNC(=O)c2cnc(-c3ccco3)nc2N)cc(OC)c1` [Example 5.43, 4-Amino-N-[(3,5-dimethoxyphenyl)methyl]-2-(2-furyl)pyrimidine-5-carboxamide], for which the Ki is 4780 nM in assay [1]; 5140 nM in assay [2]; 5920 nM in assay [3] (setting [5]); 58 nM in assay [4] (Table 9, further testing).

Take `Cc1cccnc1CNC(=O)c1c(N)nc(-c2ccco2)nc1OCCN` [Example 23.1, 4-Amino-6-(2-aminoethoxy)-2-(2-furyl)-N-[(3-methyl-2-pyridyl)methyl]pyrimidine-5-carboxamide]: the Ki in assay [1] stood at 59 nM; in assay [2], 490 nM; in assay [3] (setting [5]), 73 nM; in assay [4] (Table 9, further testing) it was 0.62 nM.

In the case of `Cc1cccnc1CNC(=O)c1c(N)nc(-c2ccco2)nc1OCCCN` [Example 23.5, 4-Amino-6-(3-aminopropoxy)-2-(2-furyl)-N-[(3-methyl-2-pyridyl)methyl]pyrimidine-5-carboxamide dihydrochloride], the Ki in assay [1] was 1060 nM; in assay [2], 3060 nM; in assay [3] (setting [5]), 2150 nM; in assay [4] (Table 9, further testing) it was 23 nM.

Turning to `COCC(C)Oc1nc(-c2ccco2)nc(N)c1C(=O)NCc1ncccc1C` (stereo not shown) [Example 20.12, 4-Amino-2-(2-furyl)-6-(2-methoxy-1-methyl-ethoxy)-N-[(3-methyl-2-pyridyl)methyl]pyrimidine-5-carboxamide], the Ki in assay [1] is 13 nM; in assay [2] it was 540 nM; in assay [3] (setting [5]) it was 1.4 nM; in assay [4] (Table 9, further testing) it was 0.21 nM.

Consider `Nc1nc(-c2ccco2)ncc1C(=O)NCc1ccccc1C(F)F` [Example 5.35, 4-Amino-N-[[2-(difluoromethyl)phenyl]methyl]-2-(2-furyl)pyrimidine-5-carboxamide], for which the Ki in assay [1] was found to be 2620 nM; in assay [2] it was 1330 nM; in assay [3] (setting [5]), 2800 nM; in assay [4] (Table 9, further testing) it was 12 nM.

In the case of `Cc1cc(C)cc(CNC(=O)c2cnc(-c3ccco3)nc2N)c1` [Example 5.39, 4-Amino-N-[(3,5-dimethylphenyl)methyl]-2-(2-furyl)pyrimidine-5-carboxamide], the inhibition constant Ki was determined as 521 nM in assay [1]; 2130 nM in assay [2]; 753 nM in assay [3] (setting [5]); 21 nM in assay [4] (Table 9, further testing).

In the case of `CCn1ccnc1CNC(=O)c1cnc(-c2ccco2)nc1N` [Example 5.26, 4-Amino-N-[(1-ethylimidazol-2-yl)methyl]-2-(2-furyl)pyrimidine-5-carboxamide], the inhibitory constant (Ki) in assay [1] came to 4860 nM; in assay [2] it was 4690 nM; in assay [3] (setting [5]), 6030 nM; in assay [4] (Table 8, Cheng and Prusoff), 24 nM; in assay [4] (Table 9, further testing), 24 nM.

Take `Cc1cccnc1CNC(=O)c1c(N)nc(-c2ccco2)nc1OCC(C)C` [Example 20.3, 4-Amino-2-(2-furyl)-6-isobutoxy-N-[(3-methyl-2-pyridyl)methyl]pyrimidine-5-carboxamide]: the Ki in assay [1] is 4.1 nM; in assay [2], 174 nM; in assay [3] (setting [5]) it was 1.7 nM; in assay [4] (Table 9, further testing) it was 0.47 nM.

`COCCOc1nc(-c2ccco2)nc(N)c1C(=O)NCc1ncccc1C` [Example 20.6, 4-Amino-2-(2-furyl)-6-(2-methoxyethoxy)-N-[(3-methyl-2-pyridyl)methyl]pyrimidine-5-carboxamide]: the Ki worked out at 19 nM in assay [1]; 382 nM in assay [2]; 5.6 nM in assay [3] (setting [5]); 0.54 nM in assay [4] (Table 9, further testing).

On to `Nc1nc(-c2ccco2)ncc1C(=O)NCc1ncccc1F` [Example 5.48, 4-Amino-N-[(3-fluoro-2-pyridyl)methyl]-2-(2-furyl)pyrimidine-5-carboxamide], for which the Ki in assay [1] is 7960 nM; in assay [2], 420 nM; in assay [3] (setting [5]), 3050 nM; in assay [4] (Table 9, further testing), 23 nM.

As to `Nc1nc(-c2ccco2)ncc1C(=O)NCc1cccc(C(F)(F)F)c1` [Example 5.29, 4-Amino-2-(2-furyl)-N-[[3-(trifluoromethyl)phenyl]methyl]pyrimidine-5-carboxamide], the Ki in assay [1] was 1700 nM; in assay [2], 5470 nM; in assay [3] (setting [5]) it was 2460 nM; in assay [4] (Table 8, Cheng and Prusoff) it was 52 nM; in assay [4] (Table 9, further testing), 52 nM.

Turning to `CCCOc1nc(-c2ccco2)nc(N)c1C(=O)NCc1ncccc1C` [Example 20.9, 4-Amino-2-(2-furyl)-N-[(3-methyl-2-pyridyl)methyl]-6-propoxy-pyrimidine-5-carboxamide], the Ki in assay [1] stood at 44 nM; in assay [2] it was 384 nM; in assay [3] (setting [5]), 18 nM; in assay [4] (Table 9, further testing), 0.52 nM.

In the case of `Nc1nc(-c2cccc(F)c2)ncc1C(=O)NCc1ncccc1Cl` [Example 10.12, 4-Amino-N-[(3-chloro-2-pyridyl)methyl]-2-(3-fluorophenyl)pyrimidine-5-carboxamide], the inhibitory constant (Ki) in assay [1] amounted to 400 nM; in assay [2], 536 nM; in assay [3] (setting [5]), 371 nM; in assay [4] (Table 8, Cheng and Prusoff), 36 nM; in assay [4] (Table 9, further testing), 36 nM.

For the compound `Nc1nc(-c2ccco2)ncc1C(=O)NCc1ncccc1C(F)(F)F` [Example 5.30, 4-Amino-2-(2-furyl)-N-[[3-(trifluoromethyl)-2-pyridyl]methyl]pyrimidine-5-carboxamide], the Ki in assay [1] was determined as 4750 nM; in assay [2], 2350 nM; in assay [3], 2300 nM; in assay [4] (Table 9, further testing), 2.7 nM.

Take `CC(=O)NCCOc1nc(-c2ccco2)nc(N)c1C(=O)NCc1ncccc1C` [Example 20, 4-(2-Acetamidoethoxy)-6-amino-2-(2-fury)-N-[(3-methyl-2-pyridyl)methyl]pyrimidine-5-carboxamide]: the Ki in assay [1] came out at 109 nM; in assay [2], 508 nM; in assay [3] (setting [5]) it was 830 nM; in assay [4] (Table 9, further testing), 1.1 nM.

As to `Nc1cccnc1CNC(=O)c1cnc(-c2ccco2)nc1N` [Example 5.53, 4-Amino-N-[(3-amino-2-pyridyl)methyl]-2-(2-furyl)pyrimidine-5-carboxamide], the inhibition constant Ki in assay [1] was found to be 6020 nM; in assay [2] it was 644 nM; in assay [3] (setting [5]) it was 4630 nM; in assay [4] (Table 9, further testing), 11 nM.

Turning to `Cc1cccnc1CNC(=O)c1nnc(-c2ccc(F)cc2)nc1N` [Example 8, 5-Amino-3-(4-fluorophenyl)-N-[(3-methyl-2-pyridyl)methyl]-1,2,4-triazine-6-carboxamide], the Ki was 137 nM in assay [1]; 1100 nM in assay [2]; 24 nM in assay [3] (setting [5]); 51 nM in assay [4] (Table 8, Cheng and Prusoff); 51 nM in assay [4] (Table 9, further testing).

In the case of `Nc1nc(-c2ccco2)ncc1C(=O)NCc1ccccc1Cl` [Example 5.15, 4-Amino-N-[(2-chlorophenyl)methyl]-2-(2-furyl)pyrimidine-5-carboxamide], the Ki in assay [1] was determined as 3990 nM; in assay [2], 1210 nM; in assay [3] (setting [5]), 2170 nM; in assay [4] (Table 8, Cheng and Prusoff), 5.1 nM; in assay [4] (Table 9, further testing) it was 5.1 nM.
